Experimental data: ChEMBL document CHEMBL1158596, “Synthetic studies on selective adenosine A2A receptor antagonists. Part II: synthesis and structure-activity relationships of novel benzofuran derivatives” (Bioorg Med Chem Lett, 2010)
Converted amounts (≈) assume the structure as drawn.

Key:
[1] = target: Adenosine receptor A2a (Homo sapiens) (UniProt P29274); assay: Displacement of [3H]CGS21680 from human adenosine A2A receptor at 0.01 umol/L by scintillation counting
[2] = target: Adenosine receptor A2a (Homo sapiens) (UniProt P29274); assay: Displacement of [3H]CGS21680 from human adenosine A2A receptor at 0.1 umol/L by scintillation counting
[3] = Intrinsic clearance in human liver microsome; format: ADME; details: liver microsomes
Mus musculus = assay: Antiparkinsonian effect in mouse assessed as inhibition of CGS-21680-induced catalepsy at 10 mg/kg, po; format: functional; details: for inhibition in vivo at 10 mg/kg: Mus musculus
[4] = Intrinsic clearance in marmoset liver microsome […]; format: ADME, Callithrix jacchus; details: liver microsomes
[5] = Solubility n JP2 fluid; format: physicochemical
[6] = target: T1, Adenosine receptor A1 (Homo sapiens) (UniProt P30542); assay: Antagonist activity at human adenosine A1 receptor at 1 umol/L; format: functional
T1 sequence (whole entry): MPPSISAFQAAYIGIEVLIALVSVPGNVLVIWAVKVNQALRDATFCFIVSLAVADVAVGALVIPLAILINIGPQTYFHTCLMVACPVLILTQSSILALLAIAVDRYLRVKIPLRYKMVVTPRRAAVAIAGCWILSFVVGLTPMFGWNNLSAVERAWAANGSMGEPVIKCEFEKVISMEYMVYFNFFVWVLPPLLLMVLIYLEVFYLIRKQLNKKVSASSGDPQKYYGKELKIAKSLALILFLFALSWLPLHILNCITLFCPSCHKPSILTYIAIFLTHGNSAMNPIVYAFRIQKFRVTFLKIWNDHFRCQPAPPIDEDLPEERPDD

[7] = target: T2, Adenosine receptor A2b (Homo sapiens) (UniProt P29275); assay: Antagonist activity at human adenosine A2B receptor at 1 umol/L; format: functional
T2 sequence (whole entry): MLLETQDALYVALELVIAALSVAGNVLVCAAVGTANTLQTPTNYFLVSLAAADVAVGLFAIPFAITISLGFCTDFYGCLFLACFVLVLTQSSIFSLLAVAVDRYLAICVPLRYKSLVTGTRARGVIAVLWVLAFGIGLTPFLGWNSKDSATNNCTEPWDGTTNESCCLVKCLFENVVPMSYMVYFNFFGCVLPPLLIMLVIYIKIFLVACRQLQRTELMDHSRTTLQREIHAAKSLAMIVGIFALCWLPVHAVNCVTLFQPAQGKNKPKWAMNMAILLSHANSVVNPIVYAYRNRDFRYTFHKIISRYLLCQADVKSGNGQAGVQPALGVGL

Adenosine receptor A2a (Homo sapiens), sequence (P29274 whole entry): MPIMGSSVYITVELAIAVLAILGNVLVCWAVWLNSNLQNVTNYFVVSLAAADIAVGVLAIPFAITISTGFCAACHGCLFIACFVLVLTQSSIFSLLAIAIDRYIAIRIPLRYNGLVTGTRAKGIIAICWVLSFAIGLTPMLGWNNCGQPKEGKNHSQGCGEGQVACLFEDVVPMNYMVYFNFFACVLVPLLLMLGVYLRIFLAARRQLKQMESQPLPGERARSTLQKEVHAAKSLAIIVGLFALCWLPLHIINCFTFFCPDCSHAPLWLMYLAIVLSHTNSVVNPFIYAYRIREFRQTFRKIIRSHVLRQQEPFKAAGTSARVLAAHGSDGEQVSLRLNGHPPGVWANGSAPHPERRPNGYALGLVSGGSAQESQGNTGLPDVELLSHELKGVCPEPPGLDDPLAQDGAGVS

inhibition [1] | inhibition [2] | CLint scaled [3] | CLint scaled [4] | solubility [5] | inhibition [6] | inhibition [7] | SMILES | inhibition in vivo at 10 mg/kg (Mus musculus) | inhibition (INH) (Mus musculus)
56% | 90% | 40.7 mL/min/kg |  |  |  |  | COc1ccc(-c2ccncc2)c2cc(C(=O)Nc3ccc(Cn4ccnc4)cc3)oc12 | 60% | 
50% | 89% |  | 133 mL/min/kg | 2 µg/mL (≈ 4.62 µM) |  |  | COc1ccc(N2CCOCC2)c2cc(C(=O)Nc3ccc(Cn4ccnc4)cc3)oc12 |  | 
46% | 83% | 53 mL/min/kg |  |  |  |  | COc1ccc(-c2cccnc2)c2cc(C(=O)Nc3ccc(Cn4ccnc4)cc3)oc12 | 60% | 
20% | 44% | < 7.83 mL/min/kg |  |  |  |  | COc1ccc(-c2cnccn2)c2cc(C(=O)Nc3ccc(Cn4ccnc4)cc3)oc12 |  | 
18% | 72% | 32.8 mL/min/kg |  |  |  |  | COc1ccc(-c2ccncc2)c2cc(C(=O)Nc3ccncc3)oc12 | 48% | 
29% | 87% | 580 mL/min/kg |  |  |  |  | COc1ccc(-c2ccccc2)c2cc(C(=O)Nc3ccncc3)oc12 |  | 40%
27% | 67% | 57 mL/min/kg |  |  |  |  | COc1ccc(-c2cccnc2)c2cc(C(=O)Nc3ccncc3)oc12 | 38% | 
4% | 27% | 37.2 mL/min/kg |  |  |  |  | COc1ccc(-c2ccccn2)c2cc(C(=O)Nc3ccncc3)oc12 |  | 

More lines, now with the values behind:

SMILES | inhibition [1] | inhibition [2] | CLint scaled [3] | CLint scaled [4] | solubility [5] | inhibition [6] | inhibition [7] | inhibition in vivo at 10 mg/kg (Mus musculus) | inhibition (INH) (Mus musculus)
CNC(=O)c1cc2c(N3CCOCC3)ccc(OC)c2o1 | 23% | 58% |  | 21.7 mL/min/kg | 97 µg/mL (≈ 334 µM) |  |  |  | 
COc1ccc(N2CCOCC2)c2cc(C(=O)NC3CCN(c4ncccn4)CC3)oc12 | -2% | 26% |  |  |  |  |  |  | 
COc1ccc(-c2cnccn2)c2cc(C(=O)Nc3ccncc3)oc12 | 24% | 22% | 154 mL/min/kg |  |  |  |  |  | 
COc1ccc(N2CCOCC2)c2oc(C(=O)Nc3ccncc3)cc12 | 26% | 77% |  |  |  |  |  |  | 
CCNC(=O)c1cc2c(N3CCOCC3)ccc(OC)c2o1 | 37% | 87% |  |  |  |  |  | 44% | 
COc1ccc(N2CCOCC2)c2cc(C(=O)Nc3ccncc3)oc12 | 30% | 73% |  | < 7.17 mL/min/kg | 87 µg/mL (≈ 246 µM) | 4% | 21% | 76% | 
COc1c(N2CCOCC2)ccc2cc(C(=O)Nc3ccncc3)oc12 |  | -5% |  |  |  |  |  |  | 
COc1ccc(N2CCOCC2)c2cc(C(=O)Nc3ccc(CN4CCC(O)CC4)cc3)oc12 | 39% | 74% |  |  | 47 µg/mL (≈ 101 µM) |  |  | 50% | 
